{
  "source": "a melting point compilation (Tetko et al.; mined from patent text by program, amines drawn as free bases though some values may be those of a salt)",
  "data": [
    {"units": {"melting point": "°C"}, "values": [
      {"smiles": "COc1ccc(NC(=O)c2ccccc2F)c(C(C)=O)c1OC", "melting point": "106 to 108"},
      {"smiles": "Cc1ccc(-c2nc3c(N[C@H]4[C@@H](C(N)=O)[C@@H]5C=C[C@H]4C5)c(Br)cnc3[nH]2)o1", "melting point": "200 to 201"},
      {"smiles": "O=Cc1ccc(-c2nnn[nH]2)cc1", "melting point": "180 to 182"},
      {"smiles": "c1ccc(Cn2cnc3cncnc32)cc1", "melting point": "99 to 100"},
      {"smiles": "N#Cc1cc([N+](=O)[O-])ccc1NC(=O)C(F)(OC(F)(F)C(F)(F)C(F)(F)F)C(F)(F)F", "note": "(stereo not drawn)", "melting point": 96},
      {"smiles": "Oc1c(F)ccc(-c2c3ccccc3c(Br)c3sc4ccccc4c23)c1F", "melting point": "180 to 182"},
      {"smiles": "N#CC1=C(C2CCCN2)Nc2n[nH]cc2C1c1cccc2nonc12", "note": "(stereo not drawn)", "melting point": "> 240"},
      {"smiles": "CC1(C)Cc2cc(NC(N)=O)c3c(c2C(c2ccccc2)=N1)CC(C)(C)O3", "melting point": "151 to 153"},
      {"smiles": "CCCn1c(=O)c2[nH]c(C34CCC(C)(C(=O)O3)C4(C)C)nc2n(CCC)c1=O", "note": "(stereo not drawn)", "melting point": "200 to 201"},
      {"smiles": "Cc1ccc(NC(=O)c2cn(-c3ccccc3)c3ccccc3c2=O)nc1", "melting point": "248 to 250"},
      {"smiles": "COc1cnn(C2CCCCO2)c(=O)c1Cl", "note": "(stereo not drawn)", "melting point": "118 to 120"},
      {"smiles": "CC(N1C(=O)C(=O)N(c2cccc(C#N)c2)C1=S)C(C)(C)C", "note": "(stereo not drawn)", "melting point": "168 to 169"},
      {"smiles": "CN(C)C1CCN(c2nccc(Oc3ccc(NC(=O)c4cc(F)cc(N5CCOCC5)c4)c4ccccc34)n2)C1", "note": "(stereo not drawn)", "melting point": "106 to 108"},
      {"smiles": "CCn1cc(C(=O)O)c(=O)c2cc(F)c(N3CCN(S(=O)(=O)c4ccc(C)cc4)CC3)c(F)c21", "melting point": "236 to 237"},
      {"smiles": "O=S1(=O)N=CN(C2CC2)c2c1ccc(F)c2Cl", "melting point": "147 to 148"},
      {"smiles": "CC(=O)OC1CSC(Oc2cncc(-c3ccncc3)c2)C(OC(C)=O)C1OC(C)=O", "note": "(stereo not drawn)", "melting point": 138},
      {"smiles": "COC(=O)C1=C(C)NC(C)=C(C(=O)OC)C1c1cccc(Nc2c(NCCCN3CCN(C4CCCCC4)CC3)c(=O)c2=O)c1", "melting point": "210 to 212"},
      {"smiles": "CCC(=O)NCc1ccc(NC(=O)/C=C/c2cnn(C)c2-c2ccc(F)cc2)cc1", "melting point": "271 to 272"},
      {"smiles": "CSc1nc2ccccc2n2cc(-c3ccccc3)cc12", "melting point": 132},
      {"smiles": "Nc1ccn(C2CC(O)C(CO)O2)c(=O)n1", "note": "(stereo not drawn)", "melting point": "208 to 210"},
      {"smiles": "Cc1oc(-c2ccccc2)nc1COc1cncc(CCl)c1", "melting point": "98 to 99"},
      {"smiles": "CCOC(=O)Cn1c(=S)c2ccccc2n(Cc2ccc(Br)cc2F)c1=O", "melting point": "109 to 110"},
      {"smiles": "O=C1CCN(CCc2ccccc2)CC1C(c1ccccc1)c1ccccc1", "note": "(stereo not drawn)", "melting point": "73 to 76"},
      {"smiles": "Cc1cccc(N2CC(C)C(N)=N2)n1", "note": "(stereo not drawn)", "melting point": "181 to 185"},
      {"smiles": "O=C(c1ccc2c(c1)[C@@H](O)[C@H](Br)CCO2)c1ccccc1F", "note": "(relative stereo)", "melting point": "219 to 221"},
      {"smiles": "Cn1nnnc1CC(=S)NCCc1ccc(OCc2ccccc2)c(OCc2ccccc2)c1", "melting point": 110},
      {"smiles": "CC(=O)CCC(=O)N(C)c1nnc(-c2cccnc2)s1", "melting point": "146 to 147"},
      {"smiles": "O=C1OCCN1CCCC(c1cc(F)ccc1F)S(=O)(=O)c1ccc(Cl)cc1", "note": "(stereo not drawn)", "melting point": "156 to 159"},
      {"smiles": "COC(=O)c1cc(C(C)Br)cnc1C1=NC(C)(C(C)C)C(=O)N1", "note": "(stereo not drawn)", "melting point": "123 to 126"},
      {"smiles": "N#Cc1cc2c(=O)c3ccccc3ccn2c1", "melting point": 197},
      {"smiles": "O=C(O)Cc1c(C(=O)O)c2cc(Oc3ccc(C(F)(F)F)cc3)ccc2n1-c1cccc(Cl)c1", "melting point": "236 to 238"},
      {"smiles": "Cc1oc2c(C)c(C)c(NC(=O)CC(C)(C)C)c(C)c2c1-c1ccc(C(C)C)cc1", "melting point": "253 to 254"},
      {"smiles": "CCCCCCC1(Br)CC(=CNc2ccccc2)OC1=O", "note": "(stereo not drawn)", "melting point": "147 to 148"},
      {"smiles": "Cc1cnc(C)n1CC(=O)c1ccc(-c2ccc(N3C[C@H](Cn4ccnn4)OC3=O)cc2F)cn1", "melting point": "112 to 115"},
      {"smiles": "CN(C)C(=O)c1c(CNS(=O)(=O)c2cccc(Cl)c2)nn(-c2ccc(Cl)cc2Cl)c1-c1ccc(Cl)cc1", "melting point": 178},
      {"smiles": "FC(F)c1nc2ccccc2n1-c1nc(-c2cncnc2)cc(N2CCOCC2)n1", "melting point": "209 to 211"},
      {"smiles": "CCCCn1c(=O)c2nn(S(=O)(=O)CCCCl)cc2n(CCCC)c1=O", "melting point": "67 to 68"},
      {"smiles": "Cc1ccn(C)c(=S)n1", "melting point": "138 to 140"},
      {"smiles": "CCOC(=O)c1cc(C(C)=O)[nH]n1", "melting point": "114 to 115"},
      {"smiles": "CN1CCN(Cc2ccc(Cl)nc2)C1=N[N+](=O)[O-]", "melting point": "165 to 167"},
      {"smiles": "CN1CCC(c2c[nH]c3ccc(O)cc23)CC1", "melting point": "234 to 237"},
      {"smiles": "CC(=O)OC1C(C)OC(n2cc(F)c(=O)[nH]c2=O)C1OC(C)=O", "note": "(stereo not drawn)", "melting point": "176 to 177"},
      {"smiles": "O=C1NCCn2c1c(-c1ccccc1)c1ccccc1c2=O", "melting point": "> 300"},
      {"smiles": "CCSc1cn(C)cc(-c2ccc(Cl)c(C(F)(F)F)c2)c1=O", "melting point": "115 to 116"},
      {"smiles": "Cc1cc(SC2=C(O)CC(CCc3ccncc3)(C(C)C)OC2=O)c(C(C)(C)C)cc1CO", "note": "(stereo not drawn)", "melting point": "140 to 155"},
      {"smiles": "CC1Cc2cc3c(cc2C(c2ccc(Cl)cc2)=NN1c1nccs1)OCO3", "note": "(stereo not drawn)", "melting point": "116 to 117"},
      {"smiles": "CC(C)c1cc(S(=O)(=O)c2c(Br)cc(CC(N)C(=O)O)cc2Br)ccc1O", "note": "(stereo not drawn)", "melting point": "210 to 217"},
      {"smiles": "COC(=O)COc1cc2c(c3c1c(C(=O)C(N)=O)c(C)n3Cc1cccc(F)c1)CCC2", "melting point": "142 to 144"}
    ]}
  ]
}
